{
  "source": "paper PMC9673142",
  "about": "“1,3-Diarylpyrazolyl-acylsulfonamides Target HadAB/BC Complex in Mycobacterium tuberculosis” (ACS Infectious Diseases, 2022)",
  "key": {"[1]": {"test_system": "compound 1-resistant Mtb mutants (SRM59, Rv0637/hadC:K157R)", "type": "cell-based, Mycobacterium tuberculosis"}, "[2]": {"test_system": "EthA mutant (C253R) of Mtb", "conditions": "cited from earlier work"}, "Mtb/pNIP40b-hadABC": {"test_system": "Mtb/pNIP40b-hadABC", "test": "microbe, parasite or virus in culture", "type": "cell-based", "conditions": "Mycobacterium tuberculosis, read-out: MIC Mtb/pNIP40b-hadABC"}},
  "data": [
    {"smiles": "CS(=O)(=O)NC(=O)CCc1cn(-c2ccc(Br)cc2)nc1-c1ccncc1", "note": "[Compound 1]", "values": [
      {"measurement": "Compound 1 MIC, SRM59-1", "setting": "[1]", "value": "50 to 100", "unit": "µM"},
      {"measurement": "Compound 1 MIC, SRM59-2", "setting": "[1]", "value": "50 to 100", "unit": "µM"},
      {"measurement": "Compound 1 MIC, SRM59-3", "setting": "[1]", "value": "50 to 100", "unit": "µM"},
      {"measurement": "change in MIC against EthA mutant (C253R)", "setting": "[2]", "value": "no change"}
    ]},
    {"smiles": "CS(=O)(=O)NC(=O)CCc1cn(-c2ccc(Cl)cc2)nc1-c1ccc(Cl)cc1", "note": "[Compound 2]", "values": [
      {"measurement": "MIC", "setting": "Mtb/pNIP40b-hadABC", "value": 2.5, "unit": "µM"},
      {"measurement": "change in MIC against EthA mutant (C253R)", "setting": "[2]", "value": "no change"}
    ]},
    {"smiles": "O=C(O)CCc1cn(-c2ccc(Br)cc2)nc1-c1ccc(Cl)cc1", "note": "[Compound 10]", "values": [
      {"measurement": "MIC", "setting": "Mtb/pNIP40b-hadABC", "value": 3, "unit": "µM"}
    ]},
    {"smiles": "CS(=O)(=O)NC(=O)NCc1cn(-c2ccc(C(F)(F)F)nc2)nc1-c1ccncc1", "note": "[Compound 11]", "values": [
      {"measurement": "MIC", "setting": "Mtb/pNIP40b-hadABC", "value": "> 40", "unit": "µM"}
    ]},
    {"smiles": "O=c1[nH]nc(CCc2cn(-c3ccc(Br)cc3)nc2-c2ccc(Cl)cc2)o1", "note": "[Compound 12]", "values": [
      {"measurement": "MIC", "setting": "Mtb/pNIP40b-hadABC", "value": 12.5, "unit": "µM"}
    ]},
    {"smiles": "CS(=O)(=O)c1nnc(Cc2cn(-c3ccc(Cl)cc3)nc2-c2ccncc2)o1", "note": "[Compound 13]", "values": [
      {"measurement": "MIC", "setting": "Mtb/pNIP40b-hadABC", "value": 1.9, "unit": "µM"}
    ]},
    {"smiles": "CCc1c(COC(=O)NS(C)(=O)=O)c(-c2ccc(Cl)cc2)nn1-c1ccc(Cl)cc1", "note": "[Compound 15]", "values": [
      {"measurement": "MIC", "setting": "Mtb/pNIP40b-hadABC", "value": 7.8, "unit": "µM"}
    ]},
    {"smiles": "CC(C)CCOc1ccc(NC(=S)Nc2ccc(OCCC(C)C)cc2)cc1", "note": "[ISO, isoxyl, reference compound]", "values": [
      {"measurement": "resistance of EthA mutant (C253R)", "setting": "[2]", "value": "4–8 folds"}
    ]},
    {"smiles": "CC(=O)Nc1ccc(/C=N/NC(N)=S)cc1", "note": "[TAC, thioacetazone, reference compound]", "values": [
      {"measurement": "resistance of EthA mutant (C253R)", "setting": "[2]", "value": "4–8 folds"}
    ]}
  ]
}
